In patent US20240173314A1, “TREATMENT OF SICKLE CELL ANAEMIA” (ZYDUS LIFESCIENCES LIMITED, priority 2021, published 2024):

Key:
[1] = system: ischemia condition; conditions: cited from earlier work
[2] = system: animal model of anaemia; conditions: animal model of anaemia (Jain et al., 2019; Joharapurkar et al., 2018); cited from earlier work
[3] = system: isolated RBCs; assay: PHZ-induced reactive oxygen species (DCFDA/DCF) in isolated RBCs; format: cell-based, C57BL/6J; conditions: PHZ 10 μM, RBC suspension
Method: (§1) The RBC was isolated from healthy male C57BL/6J (6-8 weeks old) into a heparinized tube. The RBC pellet was isolated by centrifugation. The RBC pellet was washed three time with glucose supplemented phosphate buffered saline (PBS). The final RBC pellet was diluted 1:4 with glucose supplemented PBS. The RBC suspension was incubated with compound of formula (Ia) at 0.05, 0.5 and 5 μM concentration for 30 min at 37° C. Then the phenylhydrazine (10 μM) was added to all groups and incubated for further 30 min at 37° C. After that 2,7-Dichlorofluorescin-diacetate (DCFDA, 400 μM) was added to the RBC suspension and incubated for 30 min at 37° C. After incubation, the RBC suspension was washed two times with glucose-PBS, and RBC were lysed with 200 μL of ice-cold 0.1% Triton X100 and then incubated for 30 min in darkness at room temperature. After 30 min incubation, the fluorescence of all samples was read (excitation wavelength: 485 nm and emission wavelength: 538 nm). The concentration of 2,7-Dichlorofluorescin (DCF) was calculated from the DCF standard curve. For thiobarbituric acid reactive substances (TBARS) measurement, RBC lysate was used and malondialdehyde was measured using thiobarbituric acid method (Patel V et al., 2018).

[4] = system: isolated RBCs; assay: TBARS (malondialdehyde, thiobarbituric acid method) in RBC lysate after PHZ; format: cell-based, C57BL/6J; conditions: PHZ 10 μM
Method: as §1

[5] = system: erythroid progenitor cells in bone marrow of anemic rats; assay: Erythroid progenitor cells in bone marrow of cisplatin/turpentine oil anemic rats; format: in vivo; conditions: 15 mg/kg, PO, alternate day, two weeks
Method: The anaemia was induced by cisplatin (5 mg/kg, IP, single dose) and turpentine oil (5 mL/kg, SC, twice a week) administration for four weeks. The compound of formula (Ia) (15 mg/kg, PO, alternate day) treatment was initiated after two weeks of cisplatin/turpentine oil administration. After two weeks of compound of formula (Ia) treatment, animals were euthanized and bone marrow was isolated. Bone marrow smear was prepared and stain with May-Grunwald stain and Giemsa stain. The ratio of erythroid progenitor cell: total cells were expressed as percentage.

[6] = system: PHZ-induced haemolytic anaemia; assay: Phenylhydrazine (PHZ)-induced haemolytic anaemia in mice; format: in vivo, mice (male C57BL/6J); conditions: 15 mg/kg, PO, daily day -1 to day 5; PHZ-treated mice
Method: Male C57BL/6J (6-8 weeks old) were used in the study. Mice were treated with phenylhydrazine (PHZ) on day 0, day 1 and day 3. The PHZ was given by intraperitoneally route at 40 mg/kg on day 0, and 20 mg/kg on day 1 and 3. Vehicle control or compound of formula (Ia) (15 mg/kg, PO) was given daily from day −1 to day 5. At the end of treatment period, whole blood samples were processed for haemoglobin, RBC and haematocrit measurement. The serum samples were analyzed for total iron content. The effect on oxidative and inflammatory markers will be analyzed.

[7] = ischemia condition (Joharapurkar et al., 2021)
[8] = oxidative stress (Joharapurkar et al., 2021)

O=C(O)CNC(=O)c1c(O)c2ccccc2n(OCC2CC2)c1=O [Desidustat]
IL-1β levels [1, 7]: reduced
IL-6 levels [1, 7]: reduced
malondialdehyde (MDA) [1, 8]: decreases
superoxide dismutase (SOD) [1, 8]: decreases
HIF stabilization [2]: stabilizes HIF
erythropoiesis [2]: induces erythropoiesis

O=C(O)CNC(=O)c1c(O)c2ccccc2n(OCC2CC2)c1=O [compound of formula (Ia)]
decrease of ROS (DCF concentration) compared with vehicle control ([3]; 0.05 μM): 9.6±8.9%
decrease of ROS (DCF concentration) compared with vehicle control ([3]; 0.5 μM): 25.5±3.8%
decrease of ROS (DCF concentration) compared with vehicle control ([3]; 5 μM): 35.1±1.7%
decrease of TBARS levels compared with vehicle control ([4]; 0.05 μM): 5.5±4.0%
decrease of TBARS levels compared with vehicle control ([4]; 0.5 μM): 21.8±4.0%
decrease of TBARS levels compared with vehicle control ([4]; 5 μM): 27.3±4.0%
increase in % erythroid progenitor cells compared with vehicle control [5]: 2.2±0.5 fold
decrease in serum iron levels [6]: 26.0±7.6%
increase in HCT level compared with PHZ control [6]: 37.7±5.7%
increase in RBC level compared with PHZ control [6]: 44.2±10.4%
increase in hemoglobin level compared with PHZ control [6]: 36.4±6.2%
